Experiments:
[1] = test system: anesthetized thoracotomized dog; test: Heart rate lowering and coronary bloodflow increasing effects upon anesthetized thoracotomized dog; type: in vivo; settings: compounds of group (I), 0.3 mg/kg intravenous, anesthetized mongrel; for Coronary bloodflow (CBF): rate of increase in coronary bloodflow: left circumflex branch
Protocol: Heart Rate Lowering and Coronary Bloodflow Increasing Effects Upon Anesthetized Thoracotomized Dog
The chest of a grown-up mongrel was opened under enflurane inhalation anesthesia. The blood flow of the coronary artery was determined by setting a probe of an electromagnetic bloodflowmeter at its left circumflexbranch, while the heart rate was determined by triggering the wave form of the pressure in its left ventricle and counting it with a tachometer.
The intravenous administration of a test compound (in a dose of 0.3 mg per kg of the weight of the anesthetized mongrel) was carried out by using a catheter inserted into its femoral […].
The effect of increasing the bloodflow of the circumflex branch of the left coronary artery or the heart rate lowering effect was evaluated based on the difference between the bloodflow or the heart rate after the administration and that before the administration according to the following criteria.

[2] = Acute toxicity test (intravenous injection) using a mouse; settings: in vivo
Description: The representative compounds of the present invention were examined by an ordinary acute toxicity test (intravenous injection) using a mouse to obtain the results shown in Table 4.

**Q.** With `CN(CCCNC(=O)C/C=C/c1ccc(-n2ccnc2)cc1)CCc1ccc2c(c1)OCO2` [Compound K, (E)-N-[3-((N'-(2-(3,4-Methylenedioxyphenyl)-ethyl)-N'-methyl)amino)propyl]-4-(4-(1H-imidazol-1-yl)phenyl)-3-butenamide] as the compound, how does the “Heart rate (HR): rate of reduction in heart rate” value [1] read?
**A.** The value was “++ (11-20%)”.

**Q.** And the “Coronary bloodflow (CBF): rate of increase in coronary bloodflow” value [1]?
**A.** The value was “+ (1-100%)”.

**Q.** Which “Heart rate (HR): rate of reduction in heart rate” value [1] does the source give for `COc1ccc(CCN(C)CCCNC(=O)C/C=C/c2ccc(-n3cnc(C)c3)cc2)cc1OC` [Compound L, (E)-N-[3-((N'-(2-(3,4-Dimethoxyphenyl)ethyl)-N'-methyl)amino)propyl]-4-(4-(4-methyl-1H-imidazol-1-yl)phenyl)-3-butenamide] here?
**A.** Its value is “+ (1-10%)”.

**Q.** What about the “Coronary bloodflow (CBF): rate of increase in coronary bloodflow” value [1] of the same compound?
**A.** The value was “+ (1-100%)”.

**Q.** What about the LD50 [2] of the same compound?
**A.** The LD50 was 92 mg/kg.

**Q.** Which “Heart rate (HR): rate of reduction in heart rate” value [1] does the source give for `COc1ccc(CCN(C)CCCNC(=O)C/C=C/c2ccc(-n3cncn3)cc2)cc1OC` [Compound M, (E)-N-[3-((N'-(2-(3,4-Dimethoxyphenyl)ethyl)-N'-methyl)amino)propyl]-4-(4-(1H-1,2,4-triazol-1-yl)phenyl)-3-butenamide] here?
**A.** The value was “+ (1-10%)”.

**Q.** And the “Coronary bloodflow (CBF): rate of increase in coronary bloodflow” value [1]?
**A.** The value was “+ (1-100%)”.

**Q.** And the LD50 [2]?
**A.** The LD50 was 120 mg/kg.

Source: patent publication US5607953A, “Butenoic or propenoic acid derivative” (Eisai Co., Ltd., priority 1988, dated 1997)
